Where two headings read alike, the source gives them in different places.
Tests used:
[1] = cited from earlier work
[2] = in vitro-permeation test through Heat Separated Human Epidermis (HSHE), Hanson Vertical Diffusion Cells; format: in vitro ADME; conditions: Formulation 3
Protocol: In a 10 mL flask with a stopper, 100 mg of vardenafil (base; from LGM Pharma) and 400 mg of isopropylmyristate were mixed with 9.5 g of 2-propanol/water (70% v/v) and shaken for 10 minutes at ambient temperature to obtain the formulation below. The resulting crystal free formulation was subjected to an in vitro-permeation test through Heat Separated Human Epidermis (HSHE), which is highly predictive for in vivo-transdermal flux rates.
Permeation experiments were conducted in duplicate (using 2 cells) following a Standard Operating Procedure for using Hanson Vertical Diffusion Cells (7 mL) mounted with Heat Separated Human Epidermis, an in vitro-experiment with high predictability for transdermal in vivo-fluxes. […]
200 mg of the formulation were applied on each Heat Separated Human Epidermis. […] Samples were withdrawn at predetermined time intervals (see Tables 1 and 2 below) and subjected to HPLC quantification of vardenafil (V).
Permeation experiments were conducted following a Standard Operating Procedure for using Hanson Vertical Diffusion Cells (7 mL) mounted with Heat Separated Human Epidermis, an in vitro-experiment with high predictability for transdermal in vivo-fluxes. […] Samples were withdrawn at predetermined time intervals (see Table 3 below) and subjected to HPLC quantification of vardenafil (V). […]

[3] = Calculation of required transdermal flux rates for the once daily treatment of erectile dysfunction (ED); conditions: human
[4] = cited from earlier work; remark: listed apart in the source

Structure (SMILES): CCCc1nn(C)c2c(=O)[nH]c(-c3cc(S(=O)(=O)N4CCN(C)CC4)ccc3OCC)nc12 [sildenafil]
- log P ([1]; Table 12): 1.9

Structure (SMILES): CN1CC(=O)N2[C@H](c3ccc4c(c3)OCO4)c3[nH]c4ccccc4c3C[C@@H]2C1=O [tadalafil]
- log P ([1]; Table 12): 1.7

Structure (SMILES): C[C@]12CC[C@H]3[C@@H](CCC4=CC(=O)CC[C@@]43C)[C@@H]1CC[C@@H]2O [testosterone]
- log P [1]: 3.4

Structure (SMILES): CCCc1nc(C)c2c(=O)[nH]c(-c3cc(S(=O)(=O)N4CCN(CC)CC4)ccc3OCC)nn12 [vardenafil]
- transdermal flux rate achieved (formulation) [2]: 27 μg/cm^2 μg/cm^2 over 24 h
- systemically available required dose for once daily treatment of ED (calculated) [3]: 0.75 mg
- calculated transdermal flux rates required to deliver systemic doses for treatment of ED upon application on 200 cm^2 ([3]; 24 h): 3.8 μg/cm^2 μg/cm^2 over 24 h
- plasma half-life ([4]; after oral administration): approximately 3 h
- median time to reach maximum concentration in plasma ([4]; oral administration, fasted state (Staxyn prescribing information)): 1.5 h
- absolute bioavailability ([4]; upon oral dosing in man): approximately 15%
- log P ([1]; Table 12): 1.4
- log P [1]: 1.4

Reference: US20170014417A1, “PHARMACEUTICAL ADMINISTRATION SYSTEM FOR THE TRANSDERMAL APPLICATION OF VARDENAFIL” (LIPP LIFE SCIENCES LLC, priority 2015, published 2017)
